Tests used:
[1] = system: bacterial mutagenicity (Ames); experiment: in vitro bacterial mutagenicity (Ames) assay; assay type: cell-based
[2] = Clinical pharmacokinetics in healthy subjects (bioavailability, food effect, distribution, excretion); assay type: in vivo, human
dogs = experiment: General toxicology studies in dogs; assay type: in vivo, dog
UGT1A1 = biological target: T1, UGT1A1 (Homo sapiens, UniProt P22309); experiment: In vitro enzyme inhibition, UGT1A1; assay type: in vitro ADME
T1 sequence (P22309 26-533): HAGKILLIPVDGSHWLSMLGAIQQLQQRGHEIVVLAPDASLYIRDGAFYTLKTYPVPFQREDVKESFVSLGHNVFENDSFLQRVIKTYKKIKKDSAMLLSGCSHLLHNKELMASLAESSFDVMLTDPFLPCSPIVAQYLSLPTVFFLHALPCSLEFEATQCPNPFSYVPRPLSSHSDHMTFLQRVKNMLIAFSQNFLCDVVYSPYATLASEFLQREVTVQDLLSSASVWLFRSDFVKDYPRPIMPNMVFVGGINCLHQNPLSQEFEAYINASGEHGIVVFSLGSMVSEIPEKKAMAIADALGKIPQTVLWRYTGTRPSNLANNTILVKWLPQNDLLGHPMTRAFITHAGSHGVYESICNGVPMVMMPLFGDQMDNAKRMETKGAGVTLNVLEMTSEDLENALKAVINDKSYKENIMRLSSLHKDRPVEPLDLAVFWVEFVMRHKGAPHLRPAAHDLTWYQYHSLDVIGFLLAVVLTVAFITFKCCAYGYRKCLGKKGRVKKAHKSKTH

[3] = Clinical drug interaction studies, effects of other drugs on belumosudil in healthy subjects; assay type: in vivo, human
[4] = system: patients with chronic GVHD; conditions: human, in vivo;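 also: allogeneic HCT recipients aged ≥12 years with persistent cGVHD after two to five earlier systemic treatment lines, responses judged by site investigators, 12-month analysis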
Source text: Concomitant treatment with supportive care therapies for chronic GVHD was permitted. […] Initiation of new systemic chronic GVHD therapy while on study was not permitted.
Eligible subjects were allogeneic hematopoietic cell transplant recipients aged ≥12 years with persistent cGVHD manifestations after receiving 2 to 5 prior systemic lines of therapy. Subjects were required to be receiving stable corticosteroid therapy for 2 weeks prior to screening and to have a Karnofsky or Lansky Performance Status Scale score≥60. Certain concurrent immunosuppressive medications were allowed because drug-drug interactions were not anticipated.
Randomization was stratified (1:1) by cGVHD severity and prior exposure to ibrutinib.
All responses were assessed by the study site investigators. Secondary end points included duration of response (DOR), time to response, changes in LSS summary score, failure-free survival (FFS), corticosteroid dose reductions, and overall survival (OS). DOR was measured from the time of initial PR or CR until documented progression from best response of cGVHD, time from initial response to start of additional systemic cGVHD therapy, or death. The 7-day LSS summary score was calculated based on the developer recommendations and was compared with the score from baseline; an improvement ≥7 points was considered clinically meaningful. […] Relative dose intensity (RDI) was used as a surrogate measure of drug tolerability and was defined as actual dose intensity/planned dose intensity, where dose intensity was defined as the cumulative dose over the duration of exposure (mg/d). Actual dose intensity captured the sum of actual doses received over the duration of exposure and incorporated dose reductions and/or interruptions.
The Hochberg procedure was used for multiplicity adjustment for the primary end point of best ORR. […] CI was calculated using the Clopper-Pearson interval (exact) method.

rats [5] = experiment: Combined male and female rat fertility study; assay type: in vivo; conditions: oral
Source text: In a combined male and female rat fertility study, belumosudil-treated male animals were mated with untreated females, or untreated males were mated with belumosudil-treated females.

rats [6] = experiment: General toxicology studies in rats; assay type: in vivo, rat
[7] = system: human peripheral blood lymphocytes (HPBL); experiment: in vitro chromosome aberration assay; assay type: cell-based
CYP1A2 = biological target: T2, CYP1A2 (Homo sapiens, UniProt P05177); experiment: In vitro enzyme inhibition, CYP1A2; assay type: in vitro ADME
T2 sequence (P05177 1-516): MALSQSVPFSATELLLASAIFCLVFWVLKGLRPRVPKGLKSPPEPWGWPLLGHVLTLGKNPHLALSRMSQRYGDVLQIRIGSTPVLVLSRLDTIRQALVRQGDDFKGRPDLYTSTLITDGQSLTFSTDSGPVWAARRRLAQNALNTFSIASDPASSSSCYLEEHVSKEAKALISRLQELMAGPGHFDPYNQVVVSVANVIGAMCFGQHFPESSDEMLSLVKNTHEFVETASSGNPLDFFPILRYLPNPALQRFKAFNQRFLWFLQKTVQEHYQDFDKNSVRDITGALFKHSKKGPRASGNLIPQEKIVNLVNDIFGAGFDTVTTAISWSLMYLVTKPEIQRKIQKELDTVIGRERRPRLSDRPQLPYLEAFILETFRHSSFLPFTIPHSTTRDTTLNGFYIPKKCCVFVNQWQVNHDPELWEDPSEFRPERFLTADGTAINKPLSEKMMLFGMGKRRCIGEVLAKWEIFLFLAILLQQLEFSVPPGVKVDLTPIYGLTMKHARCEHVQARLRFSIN

CYP2C19 = CYP2C19 (Homo sapiens, UniProt P33261); experiment: In vitro enzyme inhibition, CYP2C19; assay type: in vitro ADME
[8] = Clinical pharmacokinetics in chronic GVHD patients; assay type: in vivo, human
UGT1A9 = biological target: T3, UGT1A9 (Homo sapiens, UniProt O60656); experiment: In vitro enzyme inhibition, UGT1A9; assay type: in vitro ADME
T3 sequence (O60656 26-530): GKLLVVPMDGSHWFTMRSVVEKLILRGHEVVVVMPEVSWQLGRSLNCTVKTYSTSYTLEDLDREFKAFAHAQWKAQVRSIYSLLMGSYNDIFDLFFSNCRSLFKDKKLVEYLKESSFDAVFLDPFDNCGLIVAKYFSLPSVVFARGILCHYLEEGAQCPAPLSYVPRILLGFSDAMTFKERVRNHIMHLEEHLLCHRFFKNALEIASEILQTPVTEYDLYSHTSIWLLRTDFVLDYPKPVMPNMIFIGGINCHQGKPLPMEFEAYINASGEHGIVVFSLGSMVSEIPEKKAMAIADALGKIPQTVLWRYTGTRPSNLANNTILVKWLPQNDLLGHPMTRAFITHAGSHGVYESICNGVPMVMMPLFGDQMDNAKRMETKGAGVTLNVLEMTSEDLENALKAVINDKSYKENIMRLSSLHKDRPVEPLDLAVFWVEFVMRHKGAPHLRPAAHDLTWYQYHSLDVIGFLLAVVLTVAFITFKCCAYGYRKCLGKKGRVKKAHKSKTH

[9] = single oral dose of radiolabeled belumosudil

Chain of CYP2C19 (P33261 whole entry): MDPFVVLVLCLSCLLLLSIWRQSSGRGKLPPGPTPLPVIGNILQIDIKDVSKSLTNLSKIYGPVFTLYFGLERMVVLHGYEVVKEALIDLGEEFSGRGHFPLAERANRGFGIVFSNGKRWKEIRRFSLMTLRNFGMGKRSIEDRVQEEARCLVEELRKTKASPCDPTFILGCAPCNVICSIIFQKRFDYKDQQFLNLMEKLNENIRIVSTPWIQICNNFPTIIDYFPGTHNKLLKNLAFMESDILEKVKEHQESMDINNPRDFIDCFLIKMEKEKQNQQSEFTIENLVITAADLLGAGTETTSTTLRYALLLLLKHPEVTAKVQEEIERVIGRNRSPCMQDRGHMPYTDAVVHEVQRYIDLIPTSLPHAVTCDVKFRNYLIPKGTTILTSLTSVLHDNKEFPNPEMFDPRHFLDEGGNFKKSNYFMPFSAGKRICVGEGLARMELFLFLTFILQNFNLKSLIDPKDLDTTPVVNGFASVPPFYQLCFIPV

## CC(C)NC(=O)COc1cccc(-c2nc(Nc3ccc4[nH]ncc4c3)c3ccccc3n2)c1 [belumosudil, 2-{3-[4-(1H-indazol-5-ylamino)-2-quinazolinyl]phenoxy}-N-(propan-2-yl) acetamide]
[1]
  genotoxicity, bacterial mutagenicity (Ames) assay: not genotoxic
[2]; single dose
  AUC increase with high-fat and high-calorie meal vs fasted: 2 times
  Cmax increase with high-fat and high-calorie meal vs fasted: 2.2 times
[2]; [9]
  radioactivity recovered in feces: 85%
  radioactivity recovered in feces as unchanged: 30%
  radioactivity recovered in urine: less than 5%
dogs
  dose with spermatozoa degeneration: 35 mg/kg/day
UGT1A1
  inhibition of UGT1A1: inhibitor
[3]
  decrease of belumosudil AUC with omeprazole: 47%
  decrease of belumosudil AUC with rabeprazole: 80%
  decrease of belumosudil AUC with rifampin: 72%
  decrease of belumosudil Cmax with omeprazole: 68%
  decrease of belumosudil Cmax with rabeprazole: 87%
  decrease of belumosudil Cmax with rifampin: 59%
  effect of itraconazole (strong CYP3A inhibitor) on belumosudil exposure: no clinically meaningful effect
[4]
  Upper respiratory tract infection: (27) %
Rats [5]
  dose with adverse fertility findings (pre- or post-implantation loss, fewer viable embryos, abnormal sperm, testes/epididymis changes, reduced fertility): 275 mg/kg/day
Rats [6]
  dose with decreased follicular development in ovaries: 275 mg/kg/day
[7]
  genotoxicity, chromosome aberration assay: not genotoxic
CYP1A2
  inhibition of CYP1A2: inhibitor
CYP2C19
  inhibition of CYP2C19: inhibitor
[8]; dosage range of 200 and 400 mg
  increase of Cmax and AUC with dose: approximately proportional
[8]; human, in vivo
  effect of age (18 to 77 years), sex, weight (38.6 to 143 kg), mild to moderate renal impairment on pharmacokinetics: No clinically significant differences
UGT1A9
  inhibition of UGT1A9: inhibitor

Reference: patent publication US12097202B2 (Kadmon Corporation, LLC, priority 2022, dated 2024)
